Read-outs that look alike come from different tables or passages of the source.
Assays:
[1] = system: BRA (mesoderm marker) in RUES2-GLR cells; assay: DevTox GLR-Endo assay: increase in percent BRA-positive cells (AEID 3096, Bra_up); type: cell-based, human; details: for HIT−CALL: tcpl plot AEID3096, COFF 0.774; for MAX_MEAN: tcpl plot AEID3096, maximum mean response; for MAX_MED: tcpl plot AEID3096, maximum median response
Protocol: (§1) The total test chemical incubation period was 48 h.
(§2) (Supplementary Materials).

[2] = system: SOX17 (endoderm marker) in RUES2-GLR cells; assay: DevTox GLR-Endo assay: decrease in percent SOX17-positive cells (AEID 3094, Sox17_dn); details: for Hit Call: Table S2, SOX17-positive cells, cutoff 3*bmad; for DevTox ACC: Table S2, percent SOX17-positive cells; for DevTox ACC / DevTox-GLR Endo ACC: 48 h exposure; for HIT−CALL: tcpl plot AEID3094, COFF 20.3; for Emax / AC50: Homo sapiens; for AC50: read-out: ga (winning model), tcpl plot AEID3094, gain parameter of winning curve fit (log concentration, µM axis), hit calls only (converted); for DevTox-GLR Endo ACC: activity concentration at cutoff, SOX17-positive cells
Summary of the method: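 Readouts are loss of SOX17-positive fraction and reduced cell number in endoderm-differentiating RUES2-GLR cells after 48 h of chemical exposure. Controls: undifferentiated and differentiated cells, 0.2% DMSO, and 1 µM SB431542; at least four biological replicates.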

[3] = system: o/c ratio in H9 embryonic stem cells; details: Teratogen Index, cited from earlier work; for quickPredict TI: o/c ratio
H9 embryonic stem cells = details: cited from earlier work
[4] = system: SOX17 (endoderm marker) in RUES2-GLR cells; assay: DevTox GLR-Endo assay: increase in percent SOX17-positive cells (AEID 3093, Sox17_up); type: cell-based, human; details: for HIT−CALL: tcpl plot AEID3093, COFF 20.3; for Emax: Homo sapiens
Protocol: as §1, §2

[5] = system: SOX2 (ectoderm and pluripotency marker) in RUES2-GLR cells; assay: DevTox GLR-Endo assay: increase in percent SOX2-positive cells (AEID 3095, Sox2_up); details: for MAX_MEAN: tcpl plot AEID3095, maximum mean response; for MAX_MED: tcpl plot AEID3095, maximum median response; for AC50 / Emax: Homo sapiens; for AC50: read-out: ga (winning model); for Emax: read-out: tp (winning model);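 as to all read-outs here: cells exposed to test chemicals for 48 h in total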
Protocol: RUES2-GLR cells were seeded 24 h prior to differentiation initiation into vitronectin-coated 384-well CellCarrier Ultra plates (10.6 mm^2/well) (Perkin Elmer, Waltham, MA, USA). Vitronectin (0.5 µg/cm^2)-coated plates were prepared and stored at 4 °C, wrapped in parafilm, for less than seven days and incubated at room temperature for one hour prior to cell seeding. […] Cells were dispensed into 20 µL coating solution using a Certus FLEX Micro Dispenser (Fritz Gyger, Gwatt, Switzerland) with a 0.45 µm valve to a final volume of 100 µL and density of 2.8 × 10^3 cells per well.
Following a 24 h post-seeding incubation period (Time = 0 h) (Figure 3A), directed endoderm differentiation was initiated with the PSC Definitive Endoderm Induction kit (Gibco, Waltham, MA, USA). […] A target dilution series (0.002–200 µM) was generated by dispensing variable nanoliter volumes of test chemical and backfilling with a complementary volume of DMSO using Echo Cherry Pick software (v.1.6.2). Wells were backfilled with 50 µL of induction medium using a Certus FLEX Micro Dispenser with 0.45 µm valves. Test compound treatment plates were mixed on a Multi-Microplate Genie mixer at 700 rpm for 10 min and subsequently incubated for two hours in a humidified atmosphere at 37 °C with 5% CO2. Each chemical treatment (0 h–Medium A; 24 h–Medium B) were prepared the day of treatment. At 0 h, cell culture medium was aspirated from the assay plate at a rate of 1 µL/s and 40 µL of Medium A ± test chemical applied using a CyBio FeliX automated liquid handler (Analytik Jena, Jena, Germany). At 24 h, conditioned cell culture medium was aspirated and 40 µL of Medium B ± test chemical was applied. At 48 h, cells were prepared for high-content image acquisition by fixation and nuclear staining. The total test chemical incubation period was 48 h. For fixation, a 4% paraformaldehyde (PFA) solution was achieved by adding 40 µL of 8% PFA directly to cell culture medium using a CyBio FeliX liquid handler. […] Following an additional 30 min incubation period at room temperature, staining solution was aspirated, 50 µL of DPBS was added, and plate sealed with MicroAmp Optical Adhesive Film (Applied Biosystems, Waltham, MA, USA).
Images were acquired within 12 h post-fixation using an Opera Phenix High-Content Screening System (Perkin Elmer, Waltham, MA, USA). […] Cell identification and mean biomarker fluorescent intensities were calculated using Harmony image analysis software (Perkin Elmer, Waltham, MA, USA). Cell nuclei were identified using the object classifying algorithm C of the software with border objects excluded using the “Remove Border Objects” feature. Mean cell biomarker intensity statistics were gathered from each object and exported for further analysis using a custom script in Python version 3.7.4 [61] […] For each plate, pluripotent-negative control wells were used to establish baseline intensity values and a cutoff threshold for determining SOX17 and BRA biomarker-positive cells. Endoderm differentiated positive control wells were used to establish baseline intensity values and a cutoff threshold for SOX2-positive cells. Cells with a mean intensity five times the baseline median absolute deviation (5*bmad) above the median cell intensity for plate-based control population technical replicates were considered positive. Well-based cell counts, reflected by the sum of total counted objects from all fields, were used to calculate the percent responders for each respective biomarker and evaluate cytotoxicity. Well-level results were exported for data modeling in the ToxCast Pipeline.
The ToxCast Pipeline R package (tcpl v.2.0.2) was used to normalize, fit, and qualify concentration-response screening data [63].

[6] = cited from earlier work; for Development Toxicant Classification: Table S2; for Classification: developmental toxicant classification (Teratogen / Non-Teratogen) of reference and training chemicals, ref DOI per chemical: 10.1093/toxsci/kft239, 10.1093/toxsci/kfaa014, 10.1177/026119290203000204, 10.1038/s41598-020-59542-x; for DT Class.: developmental toxicant classification, chemicals common with quickPredict
RUES2-GLR cells = assay: DevTox GLR-Endo assay: decrease in total cell count, cytotoxicity (AEID 3098, CellCount_dn); details: for Emax: Homo sapiens, read-out: Cell Count % Max Inhibition
[7] = concentration at cell viability cutoff
[8] = read-out: DevTox % Max Inhibition
[9] = tcpl plot AEID3093, maximum mean response, read-out: MAX_MEAN
[10] = tcpl plot AEID3093, maximum median response, read-out: MAX_MED

SMILES | HIT−CALL [1] | MAX_MEAN [1] [Percent Activity] | MAX_MED [1] [Percent Activity] | Hit Call [2] | DevTox ACC [2] [µM] | HIT−CALL [2] | quickPredict TI [3] [µM] | HIT−CALL [4] | MAX_MEAN [5] [Percent Activity] | MAX_MED [5] [Percent Activity] | Development Toxicant Classification [6] | Classification [6] | DT Class. [6] | Emax [2, 8] [%] | Emax ([2]; read-out: MAX_MEAN) [%] | Emax ([2]; read-out: MAX_MED) [%] | AC50 [2] [µM] | Emax ([2]; read-out: tp (winning model)) [%] | DevTox-GLR Endo ACC [2] [µM] | quickPredict CV (H9 embryonic stem cells; [7]) [µM] | further results
CC(O)CO (centres unmarked) [1,2-Propylene glycol] | 0 | 0.919 | 0.955 | Negative | >200 | 0 | 327552 | 0 | 0.616 | 0.577 | Negative | Non-Teratogen | Neg |  |  |  |  |  |  |  | DevTox % Max Inhibition ([2]; Table S2, percent SOX17-positive cells relative to DMSO): 5.484%; MAX_MEAN ([2]; tcpl plot AEID3094, maximum mean response): 3.45 Percent Activity; MAX_MED ([2]; tcpl plot AEID3094, maximum median response): 5.48 Percent Activity; quickPredict TI (µM) [3]: 327,552 µM; quickPredict CV (H9 embryonic stem cells; cell viability): 246664 µM; quickPredict CV (µM) (H9 embryonic stem cells; [7]): 246,664 µM; MAX_MEAN ([4]; tcpl plot AEID3093, maximum mean response): 8.27 Percent Activity; MAX_MED ([4]; tcpl plot AEID3093, maximum median response): 7.58 Percent Activity; Cell Count ACC (RUES2-GLR cells; Table S2, 48 h exposure): >200 µM; Cell Count % Max Inhibition (RUES2-GLR cells; Table S2, cell count relative to DMSO): 12.9966%
CC(C)(c1ccc(O)cc1)c1ccc(O)cc1 [Bisphenol A] |  |  |  | Positive | 31.7467 | 1 |  | 0 | 4.11 | 3.32 | Positive | Teratogen | Pos | 102 | 102 | 102 | 38.9 | 102 | 31.75 | 39.4 | Emax [4, 9]: 9.9%; Emax [4, 10]: 10.7%; AC50 [5]: 38 µM; Emax [5]: 3.24%; Emax (RUES2-GLR cells): 94.4%; Cell Count ACC (RUES2-GLR cells; human, 48 h): 21.1157 µM; DevTox-GLR Endo CC (RUES2-GLR cells; human, 48 h): 21.12 µM
CS(=O)(=O)OCCCCOS(C)(=O)=O [Busulfan] | 0 | 2.12 | 2.19 | Positive | 25.262 | 1 | 2.31 | 0 | 2.43 | 2.59 | Positive | Teratogen | Pos | 100 | 100 | 100 | 38.9 | 101 | 25.26 | 4.91 | Emax [4, 9]: 7.27%; Emax [4, 10]: 12.6%; AC50 [5]: 145 µM; Emax [5]: 4.09%; effect on cell count (in words) (RUES2-GLR cells): significant decreases in cell count; Emax (RUES2-GLR cells): 82.3%; Cell Count ACC (RUES2-GLR cells; human, 48 h): 5.795 µM; DevTox-GLR Endo CC (RUES2-GLR cells; human, 48 h): 5.79 µM

— publication PMC9321663, “The DevTox Germ Layer Reporter Platform: An Assay Adaptation of the Human Pluripotent Stem Cell Test” (Toxics, 2022)
